Data taken from PubChem BioAssay (NCI).
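Tested at 5 concentrations; 48 h exposure; 96-well plates; endpoints linearly interpolated, else capped at highest concentration. At the GI50, growth is halved. TGI: total growth inhibition.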

What was measured:
Test in all cases: NCI tumour cell line growth inhibition, 48 h
NCI-H23 lung = test system: NCI-H23 lung
UACC-62 melanoma = test system: UACC-62 melanoma
SNB-78 CNS = test system: SNB-78 CNS
HOP-92 NSCLC = test system: HOP-92 NSCLC
SF-268 CNS = test system: SF-268 CNS
RXF 393 renal = test system: RXF 393 renal
KM20L2 colon = test system: KM20L2 colon
HOP-62 NSCLC = test system: HOP-62 NSCLC
U251 CNS = test system: U251 CNS
IGROV1 ovarian = test system: IGROV1 ovarian
NCI-H522 lung = test system: NCI-H522 lung
SR leukemia = test system: SR leukemia
A498 renal = test system: A498 renal
SK-OV-3 ovarian = test system: SK-OV-3 ovarian
HL-60(TB) leukemia = test system: HL-60(TB) leukemia
NCI-H226 lung = test system: NCI-H226 lung
M19-MEL melanoma = test system: M19-MEL melanoma
DMS 273 small cell lung = test system: DMS 273 small cell lung
UO-31 renal = test system: UO-31 renal
M14 melanoma = test system: M14 melanoma
ACHN renal = test system: ACHN renal
HCT-116 colon = test system: HCT-116 colon
NCI-H460 lung = test system: NCI-H460 lung
CCRF-CEM leukemia = test system: CCRF-CEM leukemia
EKVX NSCLC = test system: EKVX NSCLC
OVCAR-8 ovarian = test system: OVCAR-8 ovarian
OVCAR-5 ovarian = test system: OVCAR-5 ovarian
SK-MEL-28 melanoma = test system: SK-MEL-28 melanoma
UACC-257 melanoma = test system: UACC-257 melanoma
DMS 114 small cell lung = test system: DMS 114 small cell lung
TK-10 renal = test system: TK-10 renal
MOLT-4 leukemia = test system: MOLT-4 leukemia
SF-295 CNS = test system: SF-295 CNS
KM12 colon = test system: KM12 colon
SNB-19 CNS = test system: SNB-19 CNS
HT29 colon = test system: HT29 colon
SK-MEL-5 melanoma = test system: SK-MEL-5 melanoma
MDA-MB-231 breast = test system: MDA-MB-231 breast
786-0 renal = test system: 786-0 renal
HS 578T breast = test system: HS 578T breast
SN12C renal = test system: SN12C renal
DLD-1 colon = test system: DLD-1 colon
BT-549 breast = test system: BT-549 breast
MALME-3M melanoma = test system: MALME-3M melanoma
LOX IMVI melanoma = test system: LOX IMVI melanoma
MDA-N = test system: MDA-N
SK-MEL-2 melanoma = test system: SK-MEL-2 melanoma
A549 NSCLC = test system: A549 NSCLC
MCF7 breast = test system: MCF7 breast
RPMI-8226 leukemia = test system: RPMI-8226 leukemia
HCC-2998 colon = test system: HCC-2998 colon
HCT-15 colon = test system: HCT-15 colon
K-562 leukemia = test system: K-562 leukemia
SF-539 CNS = test system: SF-539 CNS
MDA-MB-435 = test system: MDA-MB-435
OVCAR-4 ovarian = test system: OVCAR-4 ovarian
COLO 205 colon = test system: COLO 205 colon
DU-145 prostate = test system: DU-145 prostate
P388/ADR leukemia = test system: P388/ADR leukemia
SN12K1 renal = test system: SN12K1 renal
SW-620 colon = test system: SW-620 colon
SNB-75 CNS = test system: SNB-75 CNS
T-47D breast = test system: T-47D breast
PC-3 prostate = test system: PC-3 prostate
CAKI-1 renal = test system: CAKI-1 renal
HOP-18 NSCLC = test system: HOP-18 NSCLC
P388 leukemia = test system: P388 leukemia
OVCAR-3 ovarian = test system: OVCAR-3 ovarian
NCI/ADR-RES ovarian = test system: NCI/ADR-RES ovarian

NC(CCCC(N)P(=O)(O)O)C(=O)O (stereo not drawn)
TGI (NCI-H23 lung): > 100 µM | TGI (UACC-62 melanoma): > 100 µM | TGI (SNB-78 CNS): > 100 µM | TGI (HOP-92 NSCLC): > 100 µM | TGI (SF-268 CNS): > 100 µM | TGI (RXF 393 renal): > 100 µM | TGI (KM20L2 colon): > 100 µM | TGI (HOP-62 NSCLC): > 100 µM | TGI (U251 CNS): > 100 µM | TGI (IGROV1 ovarian): > 100 µM | TGI (NCI-H522 lung): > 100 µM | TGI (SR leukemia): > 100 µM | TGI (A498 renal): > 100 µM | TGI (SK-OV-3 ovarian): > 100 µM | TGI (HL-60(TB) leukemia): > 100 µM | TGI (NCI-H226 lung): > 100 µM | TGI (M19-MEL melanoma): > 100 µM | TGI (DMS 273 small cell lung): > 100 µM | TGI (UO-31 renal): > 100 µM | TGI (M14 melanoma): > 100 µM | TGI (ACHN renal): > 100 µM | TGI (HCT-116 colon): > 100 µM | TGI (NCI-H460 lung): > 100 µM | TGI (CCRF-CEM leukemia): > 100 µM | TGI (EKVX NSCLC): > 100 µM | TGI (OVCAR-8 ovarian): > 100 µM | TGI (OVCAR-5 ovarian): > 100 µM | TGI (SK-MEL-28 melanoma): > 100 µM | TGI (UACC-257 melanoma): > 100 µM | TGI (DMS 114 small cell lung): > 100 µM | TGI (TK-10 renal): > 100 µM | TGI (MOLT-4 leukemia): > 100 µM | TGI (SF-295 CNS): > 100 µM | TGI (KM12 colon): > 100 µM | TGI (SNB-19 CNS): > 100 µM | TGI (HT29 colon): > 100 µM

O=S(=O)(O)O
TGI (NCI-H23 lung): 1580 µM | TGI (UACC-62 melanoma): 1940 µM | TGI (SK-MEL-5 melanoma): 2200 µM | TGI (SNB-78 CNS): 2930 µM | TGI (MDA-MB-231 breast): > 1900 µM | TGI (HOP-92 NSCLC): 2010 µM | TGI (786-0 renal): 1490 µM | TGI (HS 578T breast): 2240 µM | TGI (SN12C renal): 1450 µM | TGI (DLD-1 colon): > 3000 µM | TGI (SF-268 CNS): 1980 µM | TGI (BT-549 breast): 2680 µM | TGI (RXF 393 renal): 1500 µM | TGI (KM20L2 colon): 2280 µM | TGI (HOP-62 NSCLC): 1070 µM | TGI (U251 CNS): 1480 µM | TGI (IGROV1 ovarian): 2170 µM | TGI (MALME-3M melanoma): 2050 µM | TGI (NCI-H522 lung): 1770 µM | TGI (SR leukemia): > 1810 µM | TGI (LOX IMVI melanoma): 542 µM | TGI (MDA-N): 360 µM | TGI (A498 renal): 1780 µM | TGI (SK-MEL-2 melanoma): 1450 µM | TGI (SK-OV-3 ovarian): 2650 µM | TGI (HL-60(TB) leukemia): 1300 µM | TGI (A549 NSCLC): 1870 µM | TGI (NCI-H226 lung): 2390 µM | TGI (MCF7 breast): 1410 µM | TGI (RPMI-8226 leukemia): 2500 µM | TGI (HCC-2998 colon): 2150 µM | TGI (DMS 273 small cell lung): 540 µM | TGI (UO-31 renal): 1770 µM | TGI (HCT-15 colon): 1820 µM | TGI (M14 melanoma): 1580 µM | TGI (K-562 leukemia): 1230 µM | TGI (ACHN renal): 1550 µM | TGI (SF-539 CNS): 1840 µM | TGI (MDA-MB-435): 634 µM | TGI (HCT-116 colon): 914 µM | TGI (OVCAR-4 ovarian): 2080 µM | TGI (NCI-H460 lung): 1210 µM | TGI (CCRF-CEM leukemia): 684 µM | TGI (EKVX NSCLC): 2470 µM | TGI (OVCAR-8 ovarian): 1830 µM | TGI (OVCAR-5 ovarian): 1700 µM | TGI (SK-MEL-28 melanoma): 1700 µM | TGI (UACC-257 melanoma): 1990 µM | TGI (COLO 205 colon): 2210 µM | TGI (DU-145 prostate): 1620 µM | TGI (P388/ADR leukemia): > 3000 µM | TGI (SN12K1 renal): 1380 µM | TGI (TK-10 renal): 2160 µM | TGI (MOLT-4 leukemia): 1680 µM | TGI (SF-295 CNS): 2060 µM | TGI (SW-620 colon): 1030 µM | TGI (KM12 colon): 2150 µM | TGI (SNB-75 CNS): 2290 µM | TGI (T-47D breast): 1770 µM | TGI (SNB-19 CNS): 2580 µM | TGI (PC-3 prostate): 1190 µM | TGI (HT29 colon): 1450 µM | TGI (CAKI-1 renal): 1870 µM | TGI (HOP-18 NSCLC): 1680 µM | TGI (P388 leukemia): > 1820 µM | TGI (OVCAR-3 ovarian): 1770 µM | TGI (NCI/ADR-RES ovarian): 2360 µM

O=c1cccccc1[O-].O=c1cccccc1[O-].O=c1cccccc1[O-].[Eu+3]
TGI (NCI-H23 lung): > 100 µM | TGI (UACC-62 melanoma): > 100 µM | TGI (SK-MEL-5 melanoma): > 100 µM | GI50 (SNB-78 CNS): 20.1 µM | TGI (SNB-78 CNS): > 100 µM | TGI (HOP-92 NSCLC): > 100 µM | TGI (786-0 renal): > 100 µM | GI50 (SN12C renal): 56.6 µM | TGI (SN12C renal): > 100 µM | GI50 (DLD-1 colon): 24 µM | TGI (DLD-1 colon): > 100 µM | TGI (SF-268 CNS): > 100 µM | TGI (RXF 393 renal): 73.9 µM | GI50 (KM20L2 colon): 27.2 µM | TGI (KM20L2 colon): > 100 µM | GI50 (HOP-62 NSCLC): 24.9 µM | TGI (HOP-62 NSCLC): 90.2 µM | GI50 (U251 CNS): 26.9 µM | TGI (U251 CNS): > 100 µM | TGI (IGROV1 ovarian): > 100 µM | TGI (MALME-3M melanoma): > 100 µM | TGI (NCI-H522 lung): 54.8 µM | TGI (LOX IMVI melanoma): > 100 µM | GI50 (A498 renal): 78.4 µM | TGI (A498 renal): > 100 µM | TGI (SK-MEL-2 melanoma): > 100 µM | TGI (SK-OV-3 ovarian): > 100 µM | TGI (HL-60(TB) leukemia): 74.5 µM | TGI (A549 NSCLC): > 100 µM | TGI (NCI-H226 lung): > 100 µM | TGI (RPMI-8226 leukemia): > 100 µM | TGI (HCC-2998 colon): > 100 µM | GI50 (DMS 273 small cell lung): 16.9 µM | TGI (DMS 273 small cell lung): > 100 µM | TGI (UO-31 renal): > 100 µM | TGI (HCT-15 colon): > 100 µM | TGI (M14 melanoma): > 100 µM | TGI (K-562 leukemia): > 100 µM | TGI (ACHN renal): > 100 µM | GI50 (SF-539 CNS): 30.2 µM | TGI (SF-539 CNS): > 100 µM | TGI (HCT-116 colon): 76.7 µM | TGI (OVCAR-4 ovarian): > 100 µM | TGI (NCI-H460 lung): > 100 µM | TGI (CCRF-CEM leukemia): 78 µM | TGI (EKVX NSCLC): > 100 µM | TGI (OVCAR-8 ovarian): 63.8 µM | TGI (OVCAR-5 ovarian): > 100 µM | TGI (SK-MEL-28 melanoma): > 100 µM | TGI (UACC-257 melanoma): 99.6 µM | TGI (TK-10 renal): > 100 µM | TGI (MOLT-4 leukemia): > 100 µM | TGI (SF-295 CNS): > 100 µM | TGI (SW-620 colon): > 100 µM | TGI (KM12 colon): > 100 µM | TGI (SNB-75 CNS): 79 µM | TGI (SNB-19 CNS): > 100 µM | TGI (HT29 colon): > 100 µM | TGI (CAKI-1 renal): > 100 µM | TGI (OVCAR-3 ovarian): 48.1 µM
